This is an account of results in patent EP4818178A1, “PREPARATION AND USE OF PYRIMIDOTHIOPYRANONE KRAS MUTANT PROTEIN INHIBITOR” (Ya Therapeutics Inc, priority 2024, dated 2025).

Some results are limits rather than exact numbers.

Chain of KRasG12D (P01116 1-188 isoform P01116-2 G12D): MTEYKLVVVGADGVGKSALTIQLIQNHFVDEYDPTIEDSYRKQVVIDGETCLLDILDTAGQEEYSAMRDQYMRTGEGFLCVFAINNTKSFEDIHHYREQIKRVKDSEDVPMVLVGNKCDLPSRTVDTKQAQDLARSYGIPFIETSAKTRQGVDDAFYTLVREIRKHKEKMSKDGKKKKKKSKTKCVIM

This experiment addresses KRasG12D (Homo sapiens, UniProt P01116, G12D). Nature of the experiment: KRAS inhibitory activity test, TR-FRET (inhibition of binding of KRasG12D to GTP, SOS/GTP nucleotide exchange). Particulars: read-out: IC50 values of the compounds for inhibiting KRAS enzymes, G12D. Format: biochemical. On the procedure:
• 1. […] Reagent Preparation: • a. Storage Reagents:
Prepare a 1L solution by mixing 20mL of 1000mM HEPES, 20mL of 500mM EDTA, 10mL of 5M sodium chloride, 0.1mL of 100% Tween 20, and 949.9mL of water. Sterilize by filtration and store at 4°C.
Prepare a 1L solution by mixing 20mL of 1000mM HEPES, 10mL of 1000mM magnesium chloride, 30mL of 5M sodium chloride, 0.05mL of 100% Tween 20, and 939.95mL of water. Sterilize by filtration and store at 4°C. 3) KRAS/Bodipy GDP/Tb-SA Mixture: Mix 9.5 µL of 95 µM KRasG12D protein with 440.5 µL of KRAS nucleotide exchange buffer. Incubate at room temperature for 1 hour. Then, mix with 8.4 µL of 17.9 µM Tb-SA, 1.8 µL of 5 mM Bodipy GDP, and 9539.8 µL of KRAS experimental buffer to prepare […]. After mixing, incubate at room temperature for 6 hours and store at -80°C.
• 1) KRAS Enzyme Solution: Mix 73.3 µL of KRAS/Bodipy GDP/Tb-SA mixture with 2126.7 µL of KRAS experimental buffer to prepare a 2200 µL solution. • 2) SOS/GTP Mixture
c. Experimental Procedure: Mix 1.59 µL of 166 µM SOS protein with 198 µL of 100 mM... GTP and 0.41 µL KRAS buffer were prepared to a 2200 µL solution. The stock solution concentration of the control compound was 1 mM, and the stock solution concentration of the test compound was 10 mM. 9 µL of the control compound and the test compound were transferred to a 384-LDV plate. The compound on the LDV plate was 3-fold diluted 10-point using Bravo. 9 nL of the compound on the LDV plate was transferred to the experimental plate using ECHO. 3 µL of a 3 nM Kras/0.5 nM TB-SA/30 nM BodipyGDP mixture and 3 µL of Ras buffer were added to each well of the experimental plate using a Dragonfly autopilot. The plate was centrifuged at 1000 rpm for 1 minute. The plate was incubated at room temperature for 1 hour. 3 µL of 120 nM SOS/9 mM KRAS buffer was added to each well of the experimental plate using a Dragonfly autopilot. The […] was centrifuged at 1000 rpm for 1 minute; the plate was incubated at room temperature for 1 hour; the plate was read and the data were recorded using Envision; the data were analyzed using Excel and Xlfit to calculate the IC50of the test compound. "++++" indicates IC50≤ 10 nM; "+++" indicates 10 nM < IC50≤ 100 nM; "++" indicates 100 nM < IC50≤ 2000 nM; "+" indicates 2000 nM < IC50.
For orientation: Time-resolved FRET reads energy transfer from a long-lived donor to a nearby acceptor.
As usually defined, the IC50 is the concentration that inhibits the measured activity by half. Take `Cc1cc(N)nc([C@@H]2Cc3nc(OC[C@@]45CCCN4CC(=C(F)F)C5)nc(N4CC5CCC(C4)N5)c3CS2(=O)=O)c1C(F)(F)F` [Compound 18A, (7S)-7-(6-amino-4-methyl-3-(trifluoromethyl)pyridin-2-yl)-2-(((S)-2-(difluoromethylene)tetrahydro-1H-pyrrolazin-7a(5H)-yl)methoxy)-4-(3,8-diazabicyclo[3.2.1]octane-3-yl)-7,8-dihydro-5H-thiopyrano[4,3-d]pyrimidine-6,6-dioxide]: the 50% inhibitory concentration (IC50) was not above 10 nM.

For `Cc1cc(N)nc(C2Cc3nc(OC[C@@]45CCCN4CC(=CF)C5)nc(N4CC5CCC(C4)N5)c3CS2(=O)=O)c1C(F)(F)F` (stereo partly drawn) [Compound 19, 7-(6-amino-4-methyl-3-(trifluoromethyl)pyridin-2-yl)-2-(((S)-2-(fluoromethylene)tetrahydro-1H-pyrrolazin-7a(5H)-yl)methoxy)-4-(3,8-diazabicyclo[3.2.1]octane-3-yl)-7,8-dihydro-5H-thiopyrano[4,3-d]pyrimidine-6,6-dioxide], the IC50 is not above 10 nM.

For the molecule `Cc1cc(N)nc([C@@H]2Cc3nc(OC[C@@]45CCCN4CC(=CF)C5)nc(N4CC5CCC(C4)N5)c3CS2(=O)=O)c1C(F)(F)F` [Compound 19A, (7S)-7-(6-amino-4-methyl-3-(trifluoromethyl)pyridin-2-yl)-2-(((S)-2-(fluoromethylene)tetrahydro-1H-pyrrolazin-7a(5H)-yl)methoxy)-4-(3,8-diazabicyclo[3.2.1]octane-3-y 1)-7,8-dihydro-5H-thiopyrano[4,3-d]pyrimidine-6,6-dioxide], the IC50 was not above 10 nM.

Take `C=C1CN2CCC[C@@]2(COc2nc3c(c(N4CC5CCC(C4)N5)n2)CS(=O)(=O)C(c2nc(N)cc(C)c2C(F)(F)F)C3)C1` (stereo partly drawn) [Compound 20, 7-(6-amino-4-methyl-3-(trifluoromethyl)pyridin-2-yl)-2-(((S)-2-(methylene)tetrahydro-1H-pyrrolazin-7a(5H)-yl)methoxy)-4-(3,8-diazabicyclo[3.2.1]octane-3-yl)-7,8-dihy dro-5H-thiopyrano[4,3-d]pyrimidine-6,6-dioxide]: the 50% inhibitory concentration (IC50) is not above 10 nM.

For `C=C1CN2CCC[C@@]2(COc2nc3c(c(N4CC5CCC(C4)N5)n2)CS(=O)(=O)[C@H](c2nc(N)cc(C)c2C(F)(F)F)C3)C1` [Compound 20A, (7S)-7-(6-amino-4-methyl-3-(trifluoromethyl)pyridin-2-yl)-2-(((S)-2-(methylene)tetra hydro-1H-pyrrolazin-7a(5H)-yl)methoxy)-4-(3,8-diazabicyclo[3.2.1]octane-3-yl)-7,8-dihydro-5H-thiopyrano[4,3-d]pyrimidine-6,6-dioxide], the IC50 is not above 10 nM.

Turning to `CC#Cc1cc(N)c(F)c(C2Cc3nc(OC[C@@]45CCCN4C[C@H](F)C5)nc(N4CC5CCC(C4)N5)c3CS2(=O)=O)c1C(F)(F)F` (stereo partly drawn) [Compound 21, 7-(3-amino-2-fluoro-5-(prop-1-yn-1-yl)-6-(trifluoromethyl)phenyl)-4-(3,8-diazabicyclo[3.2.1]octane-3-yl)-2-(((2R,7AS)-2-fluorotetrahydro-1H-pyrrolazin-7a(5H)-yl)methoxy)-7,8-dihydro-5H-thiopyrano[4,3-d]pyrimidine-6,6-dioxide], the concentration for half-maximal inhibition (IC50) is not above 10 nM.

As for `CC#Cc1cc(N)c(F)c([C@@H]2Cc3nc(OC[C@@]45CCCN4C[C@H](F)C5)nc(N4CC5CCC(C4)N5)c3CS2(=O)=O)c1C(F)(F)F` [Compound 21A, (7S)-7-(3-amino-2-fluoro-5-(prop-1-yn-1-yl)-6-(trifluoromethyl)phenyl)-4-(3,8-diazabicyclo[3.2.1]octane-3-yl)-2-(((2R,7AS)-2-fluorotetrahydro-1H-pyrrolazin-7a(5H)-yl)methoxy)-7,8-dihydro-5H-thiopyrano[4,3-d]pyrimidine-6,6-dioxide], the half-maximal inhibitory concentration (IC50) is not above 10 nM.

Consider `C=C1CN2CCC[C@@]2(COc2nc3c(c(N4CC5CCC(C4)N5)n2)CS(=O)(=O)C(c2c(F)c(N)cc(C#CC)c2C(F)(F)F)C3)C1` (stereo partly drawn) [Compound 22, 7-(3-amino-2-fluoro-5-(prop-1-yn-1-yl)-6-(trifluoromethyl)phenyl)-4-(3,8-diazabicyclo[3.2.1]octane-3-yl)-2-(((S)-2-(methylene)tetrahydro-1H-pyrrolazin-7a(5H)-yl)methoxy)-7,8-dihydro-5H-thiopyrano[4,3-d]pyrimidine-6,6-dioxide], for which the IC50 is not above 10 nM.

`C=C1CN2CCC[C@@]2(COc2nc3c(c(N4CC5CCC(C4)N5)n2)CS(=O)(=O)[C@H](c2c(F)c(N)cc(C#CC)c2C(F)(F)F)C3)C1` [Compound 22A, (7S)-7-(3-amino-2-fluoro-5-(prop-1-yn-1-yl)-6-(trifluoromethyl)phenyl)-4-(3,8-diazabicyclo[3.2.1]octane-3-yl)-2-(((S)-2-(methylene)tetrahydro-1H-pyrrolazin-7a(5H)-yl)methoxy)-7,8-dihydro-5H-thiopyrano[4,3-d]pyrimidine-6,6-dioxide]: the 50% inhibitory concentration (IC50) is not above 10 nM.

Turning to `CC#Cc1cc(N)c(F)c(C2Cc3nc(OC[C@@]45CCCN4CC(=C(F)F)C5)nc(N4CC5CCC(C4)N5)c3CS2(=O)=O)c1C(F)(F)F` (stereo partly drawn) [Compound 23, 7-(3-amino-2-fluoro-5-(prop-1-yn-1-yl)-6-(trifluoromethyl)phenyl)-4-(3,8-diazabicyclo[3.2.1]octane-3-yl)-2-(((S)-2-(difluoromethylene)tetrahydro-1H-pyrrolazin-7a(5H)-y 1)methoxy)-7,8-dihydro-5H-thiopyrano[4,3-d]pyrimidine-6,6-dioxide], the IC50 was not above 10 nM.

In the case of `CC#Cc1cc(N)c(F)c([C@@H]2Cc3nc(OC[C@@]45CCCN4CC(=C(F)F)C5)nc(N4CC5CCC(C4)N5)c3CS2(=O)=O)c1C(F)(F)F` [Compound 23A, (7S)-7-(3-amino-2-fluoro-5-(prop-1-yn-1-yl)-6-(trifluoromethyl)phenyl)-4-(3,8-diazabicyclo[3.2.1]octane-3-yl)-2-(((S)-2-(difluoromethylene)tetrahydro-1H-pyrrolazin-7a(5H)-yl)methoxy)-7,8-dihydro-5H-thiopyrano[4,3-d]pyrimidine-6,6-dioxide], the IC50 was not above 10 nM.

`CC#Cc1cc(N)c(F)c(C2Cc3nc(OC[C@@]45CCCN4C/C(=C\F)C5)nc(N4CC5CCC(C4)N5)c3CS2(=O)=O)c1C(F)(F)F` (stereo partly drawn) [Compound 24, 7-(3-amino-2-fluoro-5-(prop-1-yn-1-yl)-6-(trifluoromethyl)phenyl)-4-(3,8-diazabicyclo[3.2.1]octane-3-yl)-2-(((S)-2-(fluoromethylene)tetrahydro-1H-pyrrolazin-7a(5H)-yl)methoxy)-7,8-dihydro-5H-thiopyrano[4,3-d]pyrimidine-6,6-dioxide]: the half-inhibitory concentration (IC50) was not above 10 nM.

Regarding `CC#Cc1cc(N)c(F)c([C@@H]2Cc3nc(OC[C@@]45CCCN4C/C(=C\F)C5)nc(N4CC5CCC(C4)N5)c3CS2(=O)=O)c1C(F)(F)F` [Compound 24A, (7S)-7-(3-amino-2-fluoro-5-(prop-1-yn-1-yl)-6-(trifluoromethyl)phenyl)-4-(3,8-diazabicyclo[3.2.1]octane-3-yl)-2-(((S)-2-(fluoromethylene)tetrahydro-1H-pyrrolazin-7a(5 H)-yl)methoxy)-7,8-dihydro-5H-thiopyrano[4,3-d]pyrimidine-6,6-dioxide], the half-inhibitory concentration (IC50) was not above 10 nM.

Turning to `Cc1cc(N)c(F)c([C@@H]2Cc3nc(OC[C@@]45CCCN4C[C@H](F)C5)nc(N4C[C@H]5CC[C@@H](C4)N5)c3CS2(=O)=O)c1C(F)(F)F` [Compound 29A, (7S)-7-(3-amino-2-fluoro-5-methyl-6-(trifluoromethyl)phenyl)-4-((1R,5S)-3,8-diazabicyclo[3.2.1]octane-3-yl)-2-(((2R,7AS)-2-fluorotetrahydro-1H-pyrrolazin-7a(5H)-yl)methoxy)-7,8-dihydro-5H-thiopyrano[4,3-d]pyrimidine 6,6-Dioxide], the IC50 is not above 10 nM.

In the case of `Cc1cc(N)c(F)c([C@@H]2Cc3nc(OC[C@@]45CCCN4C[C@H](F)C5)nc(N4C[C@H]5CC[C@@H](C4)N5)c3CS2(=O)=O)c1C(F)(F)F` [Compound 30A, (7S)-7-(3-amino-2-fluoro-5-methyl-6-(trifluoromethyl)phenyl)-4-((1R,5S)-3,8-diazabicyclo[3.2.1]octane-3-yl)-2-(((2R,7AS)-2-fluorotetrahydro-1H-pyrrolazin-7a(5H)-yl)methoxy)-7,8-dihydro-5H-thiopyrano[4,3-d]pyrimidine 6,6-Dioxide], the concentration for half-maximal inhibition (IC50) was not above 10 nM.

As to `CC#Cc1cc(N)cc([C@@H]2Cc3nc(OC[C@@]45CCCN4CC(=C(F)F)C5)nc(N4CC5CCC(C4)N5)c3CS2(=O)=O)c1C(F)(F)F` [Compound 31A], the IC50 is not above 10 nM.
